In one test the target is T1, human DGAT2 (hDGAT2) (Homo sapiens, UniProt Q96PD7).
T1 construct: made in house; host or cells: Sf-9 insect cells (baculovirus), membrane fraction
T1 sequence (Q96PD7 1-388): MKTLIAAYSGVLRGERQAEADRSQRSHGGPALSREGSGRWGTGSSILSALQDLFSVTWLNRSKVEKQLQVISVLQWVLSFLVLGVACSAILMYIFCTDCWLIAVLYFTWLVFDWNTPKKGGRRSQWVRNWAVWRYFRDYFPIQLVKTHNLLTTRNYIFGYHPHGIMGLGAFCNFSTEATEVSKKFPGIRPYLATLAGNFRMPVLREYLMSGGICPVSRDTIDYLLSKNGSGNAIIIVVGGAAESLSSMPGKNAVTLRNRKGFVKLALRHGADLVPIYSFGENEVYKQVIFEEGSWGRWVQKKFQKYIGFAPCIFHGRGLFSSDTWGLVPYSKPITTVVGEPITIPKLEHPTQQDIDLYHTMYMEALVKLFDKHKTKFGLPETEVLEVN
As to the kind of experiment: DGAT2 Enzymatic Activity Assay. To be noted: membrane prep of Sf-9 cells expressing hDGAT2; 25 μM diolein, 5 μM 13C oleoyl-CoA; 13C18-triolein by LC/MS/MS; read-out: DGAT2 IC50. In kind it is biochemical. On the procedure: Insect Cell Expression and Membrane Preparation
Sf-9 insect cells were maintained in Grace's insect cell culture medium with 10% heated-inactivated fetal bovine serum, 1% Pluronic F-68 and 0.14 μg/ml Kanamycine sulfate at 27° C. in a shaker incubator. After infection with untagged baculovirus expressing human DGAT2 (hDGAT2) at multiplicity of infection (MOI) 3 for 48 hours, cells were harvested. Cell pellets were suspended in buffer containing 10 mM Tris-HCl pH 7.5, 1 mM EDTA, 250 mM sucrose and Complete Protease Inhibitor Cocktail (Sigma Aldrich), and sonicated on ice. Cell debris were removed by centrifugation at 2000×g for 15 minutes. Membrane fractions were isolated by ultracentrifugation (100,000×g), resuspended in the same buffer, and frozen (−80° C.) for later use. The protein concentration was determined with the Pierce™ BCA Protein Assay Kit (Thermo Fisher Scientific). Expression of protein levels was analyzed by immunoblotting with rabbit anti-DGAT2 antibody (Abcam, ab102831) and donkey anti-rabbit IgG H&L Alexa Fluor® 647 (Abcam, ab150075) followed by detection using Typhoon FLA9000 (GE Healthcare).
LC/MS/MS analyses were performed using Thermal Fisher's LX4-TSQ Vantage system. This system consists of an Agilent binary high-performance liquid chromatography (HPLC) pump and a TSQ Vantage triple quadrupole MS/MS instrument. For each sample, 2 μL samples from the top organic layer of in-plate liquid-liquid extraction were injected onto a Thermo Betabasic C4 column (2.1 mm×20 mm, 5 μm particle size). The samples were then eluted using the following conditions; mobile phase: Isopropanol:acetonitrile/10 mM ammonium formate=50/35/15 (v/v/v), flow rate: 0.8 mL/min, temperature: 25° C. Data was acquired in positive mode using a heated electrospray ionization (HESI) interface. The operational parameters for the TSQ Vantage MS/MS instrument were a spray voltage of 3000 V, capillary temperature of 280° C., vaporizer temperature 400° C., sheath gas 45 arbitrary unit, Aux gas 10 arbitrary units, S-lens 165 and collision gas 1.0 mTorr. […] (SRM) chromatograms of ^13C18-triolein (Q1: 920.8>Q3: 621.3) and internal standard ^13C21-triolein (Q1: 923.8>Q3: 617.3) were collected for 33 sec. The peak area was integrated by Xcalibur Quan software. The ratio between the ^13C18triolein generated in the reaction and spiked in internal standard ^13C21-triolein was used to generate percentage inhibition and IC50 values. Compound percentage inhibition was calculated by the following formula: Inhibition %=1−[(compound response−low control)/(high control−low control)]×100%. Potent compounds were titrated and IC50 were calculated by 4 parameter sigmoidal curve fitting formula.
DGAT2 Enzymatic Activity Assay
DGAT2 activity was determined by measuring the amount of enzymatic product ^13C18-triolein (^13C-1,2,3-Tri(cis-9-octadecenoyl)glycerol) using the membrane prep mentioned above. The assay was carried out in ABgene 384-well assay plates in a final volume of 25 μL at rt. The assay mixture contained the following: assay buffer (100 mM Tris·Cl, pH 7.0, 20 mM MgCl2, 5% ethanol), 25 μM of diolein, 5 μM of ^13C oleoyl-CoA and 8 ng/μL of DGAT2 membrane.
As for `CC(C)n1c(=O)n(-c2cc(OCC(F)F)ccn2)c2cc(F)c(C(=O)NC3(C)CCS(=O)(=O)CC3)cc21` [Example 121, 1-(4-(2,2-difluoroethoxy)pyridin-2-yl)-6-fluoro-3-isopropyl-N-(4-methyl-1,1-dioxidotetrahydro-2H-thiopyran-4-yl)-2-oxo-2,3-dihydro-1H-benzo[d]imidazole-5-carboxamide], the IC50 was found to be 92 nM.

For `CC(C)n1c(=O)n(-c2cccc(OC(F)F)c2)c2ccc(C(=O)NC(C)C(C)(C)O)cc21` (stereo not drawn) [Example 27, 1-[3-(difluoromethoxy)phenyl]-N-(2-hydroxy-1,2-dimethyl-propyl)-3-isopropyl-2-oxo-benzimidazole-5-carboxamide], the IC50 was above 10000 nM.

As for `C[C@@]1(NC(=O)c2ccc3c(c2)n(C2CCCC2)c(=O)n3-c2cccc(OC(F)F)c2)CCS(=O)(=O)C1` [Example 38, (R)-3-Cyclopentyl-1-(3-(difluoromethoxy)phenyl)-N-(3-methyl-1,1-dioxidotetrahydrothiophen-3-yl)-2-oxo-2,3-dihydro-1H-benzo[d]imidazole-5-carboxamide], the IC50 worked out at 24 nM.

In the case of `Cc1nc2c(-n3c(=O)n(C(C)C)c4cc(C(=O)NC5(C)CS(=O)(=O)C5)ccc43)cccc2o1` [Example 48, 3-isopropyl-N-(3-methyl-1,1-dioxidothietan-3-yl)-1-(2-methylbenzo[d]oxazol-4-yl)-2-oxo-2,3-dihydro-1H-benzo[d]imidazole-5-carboxamide], the IC50 was above 10000 nM.

`CC(C)n1c(=O)n(-c2cccc(OC(F)F)c2)c2ncc(C(=O)N[C@]3(C)CCS(=O)(=O)C3)cc21` [Example 90, 3-[3-(difluoromethoxy)phenyl]-1-isopropyl-N-[(3R)-3-methyl-1,1-dioxo-thiolan-3-yl]-2-oxo-imidazo[4,5-b]pyridine-6-carboxamide]: the half-maximal inhibitory concentration (IC50) turned out to be 193 nM.

As for `CC1(NC(=O)c2ccc3c(c2)n(C2CC2)c(=O)n3-c2cccc(OC(F)F)c2)CCS(=O)(=O)CC1` [Example 41, 3-Cyclopropyl-1-(3-(difluoromethoxy)phenyl)-N-(4-methyl-1,1-dioxidotetrahydro-2H-thiopyran-4-yl)-2-oxo-2,3-dihydro-1H-benzo[d]imidazole-5-carboxamide], the IC50 amounted to 211 nM.

For the compound `CC(C)n1c(=O)n(-c2cccc(OC(F)F)c2)c2c(F)cc(C(=O)NC3(C)CCS(=O)(=O)CC3)cc21` [Example 111, 1-[3-(difluoromethoxy)phenyl]-7-fluoro-3-isopropyl-N-(4-methyl-1,1-dioxo-thian-4-yl)-2-oxo-benzimidazole-5-carboxamide], the IC50 was determined as 68 nM.

Consider `CCOc1cc(-n2c(=O)n(C(C)C)c3cc(C(=O)NC4(C)CS(=O)(=O)C4)c(F)cc32)c(F)cn1` [Example 116, 1-(2-ethoxy-5-fluoropyridin-4-yl)-6-fluoro-3-isopropyl-N-(3-methyl-1,1-dioxidothietan-3-yl)-2-oxo-2,3-dihydro-1H-benzo[d]imidazole-5-carboxamide], for which the IC50 was 93 nM.

In the case of `CC1(NC(=O)c2ccc3c(c2)n(CC(F)(F)F)c(=O)n3-c2cccc(OC(F)F)c2)CCS(=O)(=O)CC1` [Example 44, 1-(3-(difluoromethoxy)phenyl)-N-(4-methyl-1,1-dioxidotetrahydro-2H-thiopyran-4-yl)-2-oxo-3-(2,2,2-trifluoroethyl)-2,3-dihydro-1H-benzo[d]imidazole-5-carboxamide], the IC50 is 87 nM.

In the case of `Cc1nnc(NC(=O)c2ccc3c(c2)n(C(C)C)c(=O)n3-c2cccc(OC(F)F)c2)s1` [Example 61, 1-(3-(difluoromethoxy)phenyl)-3-isopropyl-N-(5-methyl-1,3,4-thiadiazol-2-yl)-2-oxo-2,3-dihydro-1H-benzo[d]imidazole-5-carboxamide], the IC50 is above 9990 nM.

On to `CC(C)n1c(=O)n(-c2cccc(OC(F)(F)C(F)F)c2)c2ncc(C(=O)N[C@@]3(C)CCS(=O)(=O)C3)cc21` [Example 94, 1-isopropyl-N-[(3S)-3-methyl-1,1-dioxo-thiolan-3-yl]-2-oxo-3-[3-(1,1,2,2-tetrafluoroethoxy)phenyl]imidazo[4,5-b]pyridine-6-carboxamide], for which the IC50 amounted to 108 nM.

On to `CC(n1c(=O)n(-c2cc(OC(F)(F)F)ccc2F)c2cc(F)c(C(=O)NC3(C)CCS(=O)(=O)CC3)cc21)C(C)(C)O` (single isomer, unassigned) [Example 70b, 6-fluoro-1-(2-fluoro-5-(trifluoromethoxy)phenyl)-3-(3-hydroxy-3-methylbutan-2-yl)-N-(4-methyl-1,1-dioxidotetrahydro-2H-thiopyran-4-yl)-2-oxo-2,3-dihydro-1H-benzo[d]imidazole-5-carboxamide], for which the IC50 came to 30.4 nM.

On to `CC(n1c(=O)n(-c2cc(OCC(F)F)ncc2F)c2cc(F)c(C(=O)NC3(C)CCS(=O)(=O)CC3)cc21)C(C)(C)O` (single isomer, unassigned) [Example 74b, 1-(2-(2,2-difluoroethoxy)-5-fluoropyridin-4-yl)-6-fluoro-3-(3-hydroxy-3-methylbutan-2-yl)-N-(4-methyl-1,1-dioxidotetrahydro-2H-thiopyran-4-yl)-2-oxo-2,3-dihydro-1H-benzo[d]imidazole-5-carboxamide], for which the concentration for half-maximal inhibition (IC50) amounted to 6.5 nM.

Consider `CC(n1c(=O)n(-c2cc(OC(F)F)ccc2F)c2ccc(C(=O)NC3(C)CCS(=O)(=O)CC3)cc21)C(C)(C)O` (single isomer, unassigned) [Example 66a, 1-(5-(difluoromethoxy)-2-fluorophenyl)-3-(3-hydroxy-3-methylbutan-2-yl)-N-(4-methyl-1,1-dioxidotetrahydro-2H-thiopyran-4-yl)-2-oxo-2,3-dihydro-1H-benzo[d]imidazole-5-carboxamide], for which the IC50 was found to be 1.1 nM.

Staying with this test, now noted: membrane prep of Sf-9 cells expressing hDGAT2; 25 μM diolein, 5 μM 13C oleoyl-CoA; 13C18-triolein by LC/MS/MS; read-out: Human DGAT2 IC50.
Regarding `CC(C)n1c(=O)n(-c2cccc(OC(F)F)c2)c2cnc(C(=O)NC3(C)CCS(=O)(=O)CC3)cc21` [Example 106, 3-(3-(difluoromethoxy)phenyl)-1-isopropyl-N-(4-methyl-1,1-dioxidotetrahydro-2H-thiopyran-4-yl)-2-oxo-2,3-dihydro-1H-imidazo[4,5-c]pyridine-6-carboxamide], the IC50 came to 69.8 nM.

For the compound `CC(C)n1c(=O)n(-c2cc(OC(F)F)ccc2F)c2ccc(C(=O)N[C@@]3(C)CCS(=O)(=O)C3)cc21` [Example 81, (S)-1-(5-(Difluoromethoxy)-2-fluorophenyl)-3-isopropyl-N-(3-methyl-1,1-dioxidotetrahydrothiophen-3-yl)-2-oxo-2,3-dihydro-1H-benzo[d]imidazole-5-carboxamide], the 50% inhibitory concentration (IC50) amounted to 6.3 nM.

As to `CC(C)n1c(=O)n(-c2cc(OCC(F)F)ncc2F)c2cc(F)c(C(=O)NC3(C)CCS(=O)(=O)CC3)cc21` [Example 115, 1-(2-(2,2-difluoroethoxy)-5-fluoropyridin-4-yl)-6-fluoro-3-isopropyl-N-(4-methyl-1,1-dioxidotetrahydro-2H-thiopyran-4-yl)-2-oxo-2,3-dihydro-1H-benzo[d]imidazole-5-carboxamide], the IC50 stood at 4.1 nM.

In the case of `CC(C)n1c(=O)n(-c2cccc(C3CC3)c2)c2ccc(C(=O)NC3(C)CS(=O)(=O)C3)cc21` [Example 13, 1-(3-cyclopropylphenyl)-3-isopropyl-N-(3-methyl-1,1-dioxo-thietan-3-yl)-2-oxo-benzimidazole-5-carboxamide], the IC50 amounted to 17 nM.

The values are drawn from patent US11976061B2, “Preparation of benzimidazolone derivatives as novel diacylglyceride O-acyltransferase 2 inhibitors” (Merck Sharp & Dohme LLC, priority 2020, dated 2024).
